In patent publication US12558348B2, “Bioactive phytochemicals” (Phytoquest Limited, priority 2019, dated 2026):

How the values were obtained:
CD44-HA binding = experiment: CD44-HA (hyaluronic acid) binding activity in THP-1 cells by ELISA; assay type: cell-based, human; details: for CD44-HA: LPS-stimulated THP-1; for % reduction in CD44-HA levels: vs LPS control
Method: The THP-1 cells were cultured in RPMI media supplemented with mercaptoethanol & glutamine to get 80% confluence in the culture flask, then aspirated and centrifuged at 1500 rpm for 5 mins. The cell pellet was then resuspended in 1 ml of RPMI complete media and counted conventionally using a hemocytometer. The cells (5×106) were incubated with Phorbol 12-myristate 13-acetate (PMA) (10 ng/ml) in separate dishes to cause differentiation of the THP-1 cells. To determine the CD44-HA binding activity, THP-1 cells were pretreated for 1 hr with idoBR1 or cucumber extract-Q-actin (batch no. B17CF001) at the concentrations 100 μg/ml to 12.5 μg/ml and 200 μg/ml to 25 μg/ml respectively followed by 24 hr LPS (1 μg/ml) stimulation. Post incubation, the cell lysates were taken for further analysis.
Anti-CD44 monoclonal antibody (Invitrogen, 2 μg) was coated to each well in 96-well plates in 50 mM carbonate/bicarbonate buffer (pH 9.6) and incubated overnight at 4° C. The unbound antibodies were removed using PBS with 0.05% Tween 20 (PBS-T wash solution). The wells were blocked using 1% BSA and incubated for 1 hr at 37° C. The wells were washed thrice thoroughly using PBS-T wash solution by adding 200 μl into wells. 50 μl cell lysates were added to the wells and incubated for 1 hr at 37° C. The wells were then washed thrice by adding 200 μl of PBS-T by soaking the wells for 30 secs before each wash. Biotinylated-Hyaluronic acid (HA) antibody followed by Streptavidin-HRP was added to form an immune complex and incubated for 60 mins at 37° C. The solution was aspirated and the wells washed thrice with 200 μl wash solution by soaking the wells for 30 secs. 50 μl of both Chromogen A and Chromogen B was added to each well. The plate was incubated for 15 mins away from light at 37° C. The reaction was stopped by adding 50 μl Stop Solution and the absorbance was read at 450 nm.

IL-1β = IL-1β ELISA in LPS stimulated THP-1 cells; assay type: cell-based, human; details: for % reduction in IL-1 β levels: vs LPS control
Method: The cells in an 80% confluence culture flask were aspirated and centrifuged at 1500 rpm for 5 mins. The cell pellet was then resuspended in 1 ml of RPMI complete media and 1×10^5 cells/well seeded to each well of the 96 well microtiter plate. After 24 hrs incubation, PMA (10 ng/ml) was added to the 96 well plate to differentiate THP-1 cells to determine the TNF-α production, THP-1 cells were pretreated for 1 hr with idoBR1 or cucumber extract-Q-actin (batch no. […] Post incubation, the cell supernatant from each of the wells was aspirated into sterile micro centrifuge tubes and centrifuged at 1000 rpm for 2-3 mins. The cell supernatant was then used for evaluation of presence of cytokines using ELISA.
ELISA plates coated with antibodies for IL-12, IL-1β, or IL-10 (R&D Systems, USA) were used for the following study. To each well 50 μL of Assay Diluent RD1F was added after mixing well. 200 μL of sample (idoBR1 or extract), or control per well was added and covered with an adhesive strip. Following incubation for 2 hours at room temperature each well was aspirated and washed 4 times with Wash Buffer (400 μl). After the last wash, any remaining Wash Buffer was removed by aspirating or decanting. The plates were inverted and blotted against clean paper towels. To each well 200 μl of appropriate human conjugate was added and these then covered with a new adhesive strip and incubated for 1 hour at room temperature. The aspiration/wash was then repeated. 200 μL of Substrate Solution was then added to each well and further incubated for 20 minutes at room temperature protected from light. 50 μL of Stop Solution was added to each well. The colour in the wells was changed from blue to yellow. OD was measured within 30 minutes at 450 nm.

[1] = test system: sialidase in human THP-1 (monocyte-like) cell cultures; experiment: Endogenous (lysosomal) sialidase activity in LPS-stimulated THP-1 cells; assay type: cell-based; details: for RFU / Sialidase activity/mg protein: 2 hrs then 16 hours LPS; for Relative sialidase activity/mg protein: 16 hours LPS, relative to LPS control = 1.00
Method: The THP-1 cells were cultured in RPMI media supplemented with mercaptoethanol & glutamine to get 80% confluence in culture flask, then aspirated and centrifuged at 1500 rpm for 5 mins. The cell pellet was then resuspended in 1 ml of RPMI complete media and counted conventionally using a Hemocytometer. The cells (5×106) were incubated with PMA (10 ng/ml) in separate dishes to differentiate THP-1 cells. […] […] Post incubation, the cells were used to determine the sialidase activity.
The THP-1 cells were washed with phosphate-buffered saline (PBS) and resuspended in ice-cold buffer containing 0.25 M sucrose, 1 mM EDTA, and 0.2 mM phenylmethylsulfonyl fluoride. The cell suspension was sonicated on ice for 15 s on a low setting (6% amplitude) (Vibracell™; Sonics and Materials Inc., Newtown, CT) followed by centrifugation at 25,000 g for 15 min at 4° C. The resulting supernatant was used to determine the lysosomal sialidase activity. Protein quantification of the supernatant was performed using the Bio-Rad protein determination kit as described above. For the determination of lysosomal sialidase activity, 200 μg of total protein was mixed with 40 nmol of 4-methylumbelliferyl-α-N-acetyl-D-neuraminic acid (Sigma), the lysosomal sialidase-specific substrate, 10 μmol sodium acetate buffer, pH 4.6, and 200 μg of bovine serum albumin in a total volume of 200 μl. The sialidase reaction was allowed to proceed for 1 h at 37° C. and was terminated by the addition of 0.25 M glycine NaOH, pH 10.4. Released 4-methylumbelliferone was measured fluorometrically (Synergy 2 multimode microplate reader) at an excitation wavelength of 365 nm and emission wavelength of 448 nm.

## O=C(O)[C@@H]1NC[C@H](O)[C@@H](O)[C@@H]1O [idoBR1, (2R,3R,4R,5S)-3,4,5-trihydroxypiperidine-2-carboxylic acid]
CD44-HA binding; 12.5 μg/mL
  CD44-HA: 101.48 ng/mL
  % reduction in CD44-HA levels: 8.12%
CD44-HA binding; 25 μg/mL
  CD44-HA: 94.93 ng/mL
  % reduction in CD44-HA levels: 14.05%
CD44-HA binding; 50 μg/mL
  CD44-HA: 88.43 ng/mL
  % reduction in CD44-HA levels: 19.93%
CD44-HA binding; 100 μg/mL
  CD44-HA: 81.04 ng/mL
  % reduction in CD44-HA levels: 26.62%
IL-1β; 12.5 μg/mL
  IL-1β: 133.30 pg/mL
  % reduction in IL-1 β levels: 9.31%
IL-1β; 25 μg/mL
  IL-1β: 127.63 pg/mL
  % reduction in IL-1 β levels: 13.17%
IL-1β; 50 μg/mL
  IL-1β: 120.36 pg/mL
  % reduction in IL-1 β levels: 18.12%
IL-1β; 100 μg/mL
  IL-1β: 111.60 pg/mL
  % reduction in IL-1 β levels: 24.07%
[1]; 12.5 μg/mL + LPS, 4 hours
  Sialidase activity/mg of protein: 91.30
[1]; 12.5 μg/mL + LPS, 8 hours
  Sialidase activity/mg of protein: 129.95
[1]; 12.5 μg/mL + LPS, 16 hours
  Sialidase activity/mg of protein: 186.34
[1]; 12.5 μg/mL + LPS, 24 hours
  Sialidase activity/mg of protein: 108.47
[1]; 12.5 μg/ml
  RFU: 1610 RFU
  Sialidase activity/mg protein: 186.34
  Relative sialidase activity/mg protein: 0.89
[1]; 25 μg/mL + LPS, 4 hours
  Sialidase activity/mg of protein: 86.48
[1]; 25 μg/mL + LPS, 8 hours
  Sialidase activity/mg of protein: 121.84
[1]; 25 μg/mL + LPS, 16 hours
  Sialidase activity/mg of protein: 178.24
[1]; 25 μg/mL + LPS, 24 hours
  Sialidase activity/mg of protein: 103.85
[1]; 25 μg/ml
  RFU: 1540 RFU
  Sialidase activity/mg protein: 178.24
  Relative sialidase activity/mg protein: 0.86
[1]; 50 μg/mL + LPS, 4 hours
  Sialidase activity/mg of protein: 79.35
[1]; 50 μg/mL + LPS, 8 hours
  Sialidase activity/mg of protein: 109.77
[1]; 50 μg/mL + LPS, 16 hours
  Sialidase activity/mg of protein: 130.21
[1]; 50 μg/mL + LPS, 24 hours
  Sialidase activity/mg of protein: 88.83
[1]; 50 μg/ml
  RFU: 1125 RFU
  Sialidase activity/mg protein: 130.21
  Relative sialidase activity/mg protein: 0.63
[1]; 100 μg/mL + LPS, 4 hours
  Sialidase activity/mg of protein: 72.15
[1]; 100 μg/mL + LPS, 8 hours
  Sialidase activity/mg of protein: 99.32
[1]; 100 μg/mL + LPS, 16 hours
  Sialidase activity/mg of protein: 115.16
[1]; 100 μg/mL + LPS, 24 hours
  Sialidase activity/mg of protein: 78.66
[1]; 100 μg/ml
  RFU: 995 RFU
  Sialidase activity/mg protein: 115.16
  Relative sialidase activity/mg protein: 0.55
